Results from publication PMC5131886 (CPT: Pharmacometrics & Systems Pharmacology, 2016).
Where “and” joins values, the source holds several entries; their conditions need not be identical. Equal values may be shown once.

How the values were obtained:
[1] = cited from earlier work
plasma protein = details: cited from earlier work
VEGFR = details: cited from earlier work
sVEGFR2 = experiment: PD indirect response modeling of sVEGFR2 plasma concentrations; type: in vivo, human; details: HCC patients, following treatment, mean baseline 15.7 µg/L
hepatocellular carcinoma [2] = experiment: Time-to-tumor progression in HCC patients; type: in vivo, human; details: 37.5 mg q.d. with TACE (doxorubicin)
HCC tumors = experiment: Tumor volume by DCE-MRI in HCC patients; type: in vivo, human; details: duration of the trial, vs baseline
[3] = Hematological toxicities in the phase II pilot study; type: in vivo, human; details: HCC patients, 37.5 mg q.d.
hepatocellular carcinoma [4] = details: 50 mg q.d. in 4/2 weeks schedule, advanced HCC; cited from earlier work
hepatocellular carcinoma [5] = details: phase III, HCC patients, compared to sorafenib; cited from earlier work

Compound | Q/Fperipheral, intercompartmental clearance (RSE%) ([1]; fixed to literature value) | V2/Fperipheral, peripheral volume of distribution (RSE%) ([1]; fixed to literature value) | fb, bound fraction to plasma protein (plasma protein) | potency relative to parent drug (VEGFR) | observed plasma concentrations of sVEGFR2 (sVEGFR2) | median observed TTP (hepatocellular carcinoma [2]) | HCC tumor volumes under treatment (HCC tumors) | hematological toxicities [3] | ka, first-order absorption rate constant (RSE%) ([1]; fixed to literature value) | fM, fraction of drug metabolized into the active metabolite SU12662 ([1]; fixed) | median TTP (hepatocellular carcinoma [4]) | primary overall survival endpoint (hepatocellular carcinoma [5]) | toxicities (hepatocellular carcinoma [5])
CCNCCNC(=O)c1c(C)[nH]c(/C=C2\C(=O)Nc3ccc(F)cc32)c1C [SU12662] | 27.7 (26) L/h | 345 (22) L | 0.95 | equipotent to the parent drug |  |  |  |  |  |  |  |  | 
CCN(CC)CCNC(=O)c1c(C)[nH]c(/C=C2\C(=O)Nc3ccc(F)cc32)c1C [Sunitinib, Sunitinib malate] | 6.37 (18) L/h | 588 (8.7) L | 0.9 |  | gradually decreased over time | 7 months and 8 months | remained relatively unchanged compared to their baseline values | absence of hematological toxicities | 0.195 (6.8) 1/h | 0.21 | 5.3 months | failed its primary OS endpoint | more frequent toxicities than sorafenib
